Among the test systems are MDA-MB-435; T47D; MOLT-4; 786-0; SW-620; A549; UO-31; OVCAR-3; MDA-MB-231; SNB-19; NCI-H23; NCI-H226; NCI-H460; MCF7; K562; SK-OV-3; NCI/ADR-RES; KM12; SF-295; EKVX.
Common to all, as to test: NCI-60 cell line screen, 48 h

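In this assay, cells in 96-well plates receive the compound at five concentrations for 48 hours. Endpoints are linearly interpolated between the surrounding concentrations. GI50 is the concentration that inhibits growth by half.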 Activity calls are given as the source filed them. Rule as the data show it: active = GI50 up to about 1.1 µM and inactive = higher.

Take `COc1ccc(C2c3c[nH]nc3CC3CCCCC32)cc1` (stereo unspecified): the GI50 is 19.4 µM (inactive) in the experiment on MDA-MB-435; 3.99 µM (inactive) in the experiment on T47D; 17.7 µM (inactive) with MOLT-4; 18.6 µM (inactive) with 786-0; 18.3 µM (inactive) in the experiment with SW-620; 14.5 µM (inactive) with A549. The GI50 in the experiment with UO-31 was 14 µM (inactive); with OVCAR-3, 15.5 µM (inactive); in the experiment with MDA-MB-231, 14 µM (inactive); in the experiment with SNB-19, 18.2 µM (inactive); in the experiment on NCI-H23, 17.4 µM (inactive); with NCI-H226, 17.4 µM (inactive). The figures for the GI50 in the experiment with NCI-H460, in the experiment on MCF7 and with K562 were 16.5 µM (inactive), 15.2 µM (inactive) and 22.2 µM (inactive), respectively.
For `CN(C)c1nncc2[nH]nnc12`, the GI50 in the experiment on MDA-MB-435, in the experiment with SK-OV-3, with NCI/ADR-RES, with T47D, in the experiment on MOLT-4 and in the experiment with 786-0 was > 100 µM (inactive) in each case. For the same compound, the GI50 in the experiment on KM12, in the experiment with SW-620, with SF-295, in the experiment on A549, in the experiment with UO-31 and with OVCAR-3 was > 100 µM (inactive) throughout. Also, the GI50 in the experiment with NCI-H23, in the experiment on EKVX, in the experiment on NCI-H226, in the experiment with MCF7 and with K562 was > 100 µM (inactive) throughout.
With `C[C@]12CCC3c4ccc(O)cc4CC[C@H]3C1CC(=O)N(N)C2=O` (stereo partly specified), the GI50 with MDA-MB-435, in the experiment on SK-OV-3, in the experiment on T47D, in the experiment with MOLT-4, in the experiment with 786-0 and in the experiment with KM12 was > 100 µM (inactive) throughout. Also, the GI50 in the experiment on SW-620, with SF-295, with A549, with UO-31, in the experiment with OVCAR-3 and in the experiment on MDA-MB-231 was > 100 µM (inactive) each time. Moreover, the GI50 in the experiment on SNB-19 was > 100 µM (inactive); with NCI-H23, > 100 µM (inactive); with EKVX, 64.7 µM (inactive); in the experiment with NCI-H226, > 100 µM (inactive); with NCI-H460, > 100 µM (inactive); with MCF7, > 100 µM (inactive). For the same compound, the GI50 with K562 was > 100 µM (inactive).
Regarding `COc1cc(NC(C)=O)ccc1C(=O)NN1C(=O)/C(=C/c2ccco2)N=C1c1ccccc1`, the GI50 in the experiment on MDA-MB-435 was 25 µM (inactive); with SK-OV-3, > 50 µM (inactive); in the experiment with NCI/ADR-RES, > 50 µM (inactive); in the experiment with T47D it was > 50 µM (inactive); in the experiment with MOLT-4 it was 14.5 µM (inactive); in the experiment on 786-0 it was 24.3 µM (inactive). The GI50 in the experiment with SW-620 is 27.7 µM (inactive); in the experiment with SF-295, > 50 µM (inactive); in the experiment on A549, > 50 µM (inactive); in the experiment with UO-31, > 50 µM (inactive); in the experiment with OVCAR-3 it was > 50 µM (inactive); with SNB-19 it was > 50 µM (inactive). For the same compound, the GI50 in the experiment with NCI-H23 was > 50 µM (inactive); in the experiment on EKVX, > 50 µM (inactive); in the experiment with MCF7 it was 34.3 µM (inactive); with K562, 20.5 µM (inactive).
`COC(=O)c1c2c(cc3c1CC1(Cc4cc5c(cc4C1=O)CCC5)C3)CCC2` (stereo unspecified): the GI50 in the experiment on MDA-MB-435 was 28.1 µM (inactive); with SK-OV-3 it was 21.9 µM (inactive); in the experiment on T47D, 59 µM (inactive); in the experiment on MOLT-4 it was 5.47 µM (inactive); in the experiment on 786-0, 35.4 µM (inactive); in the experiment on KM12, 38.7 µM (inactive). Besides, the GI50 was 20.8 µM (inactive) in the experiment with SW-620; 21.5 µM (inactive) in the experiment on SF-295; 56.6 µM (inactive) in the experiment on A549; > 100 µM (inactive) in the experiment on UO-31; 72.9 µM (inactive) in the experiment on OVCAR-3; > 100 µM (inactive) in the experiment with MDA-MB-231. For the same compound, the GI50 is > 100 µM (inactive) in the experiment on SNB-19; 40.7 µM (inactive) with NCI-H23; 56.1 µM (inactive) in the experiment with EKVX; 60.3 µM (inactive) in the experiment on NCI-H226; 86.1 µM (inactive) in the experiment with NCI-H460; 24.7 µM (inactive) with MCF7. The GI50 with K562 was 7.94 µM (inactive).
With `NC1C/C(=N\O)c2c(Cl)sc(Cl)c21` (stereo unspecified), the GI50 with MDA-MB-435 was 15.6 µM (inactive); in the experiment on SK-OV-3, > 100 µM (inactive); with NCI/ADR-RES it was 25.6 µM (inactive); in the experiment with T47D it was 18.7 µM (inactive); with MOLT-4, 9.73 µM (inactive); in the experiment with 786-0, 18.1 µM (inactive). Further, the GI50 in the experiment with KM12 was 12 µM (inactive); in the experiment on SW-620, 17.9 µM (inactive); with SF-295, 28.1 µM (inactive); in the experiment with A549 it was 29.3 µM (inactive); in the experiment with UO-31, 17.4 µM (inactive); in the experiment on OVCAR-3, 17.3 µM (inactive). Further, the GI50 in the experiment with SNB-19 is 31.3 µM (inactive); in the experiment on NCI-H23, 17.1 µM (inactive); in the experiment on EKVX it was 18.5 µM (inactive); in the experiment with NCI-H226 it was 21.9 µM (inactive); in the experiment with NCI-H460, 20.4 µM (inactive); with MCF7, 11 µM (inactive). For the same compound, the GI50 in the experiment on K562 was 43.2 µM (inactive).
As for `Nn1c(Nc2ccc(S(N)(=O)=O)cc2)nnc(/C=C/c2c(O)ccc3ccccc23)c1=O`, the GI50 was 20.4 µM (inactive) in the experiment on MDA-MB-435; 24.2 µM (inactive) in the experiment with SK-OV-3; 16.3 µM (inactive) in the experiment with NCI/ADR-RES; 15 µM (inactive) with T47D; 0.234 µM (active) in the experiment on MOLT-4; 24.4 µM (inactive) in the experiment on 786-0. Also, the GI50 in the experiment with KM12 was 19.6 µM (inactive); in the experiment on SW-620, 16.4 µM (inactive); in the experiment with SF-295, 24.3 µM (inactive); in the experiment on A549 it was 28.1 µM (inactive); with UO-31 it was 22.9 µM (inactive); in the experiment with OVCAR-3, 13 µM (inactive). Besides, the GI50 with SNB-19 was 32.5 µM (inactive); in the experiment on NCI-H23, 4.07 µM (inactive); in the experiment with EKVX, 13.3 µM (inactive); with NCI-H460, 26.7 µM (inactive); with MCF7, 17.5 µM (inactive); with K562, 17 µM (inactive).
Turning to `CN1N(c2ccccc2)C(=O)C2=NC=C(C(=O)c3ccccc3)C(=N)C21C` (stereo unspecified), the GI50 in the experiment with MDA-MB-435, with SK-OV-3, in the experiment with T47D, in the experiment with MOLT-4, with 786-0 and with SW-620 was > 100 µM (inactive) in each case. Further, the GI50 in the experiment on SF-295, in the experiment on A549, with UO-31, in the experiment with OVCAR-3, in the experiment on MDA-MB-231 and with SNB-19 was > 100 µM (inactive) in each case. The GI50 with NCI-H23, with EKVX, in the experiment with NCI-H226, in the experiment on NCI-H460, in the experiment on MCF7 and in the experiment on K562 was > 100 µM (inactive) each time.

Source of the values: ChEMBL document CHEMBL1201862, “PubChem BioAssay data set” (2004).
